Target: T1, Histidine kinase (Caulobacter vibrioides, UniProt Q9X688)
T1 sequence (Q9X688 whole entry): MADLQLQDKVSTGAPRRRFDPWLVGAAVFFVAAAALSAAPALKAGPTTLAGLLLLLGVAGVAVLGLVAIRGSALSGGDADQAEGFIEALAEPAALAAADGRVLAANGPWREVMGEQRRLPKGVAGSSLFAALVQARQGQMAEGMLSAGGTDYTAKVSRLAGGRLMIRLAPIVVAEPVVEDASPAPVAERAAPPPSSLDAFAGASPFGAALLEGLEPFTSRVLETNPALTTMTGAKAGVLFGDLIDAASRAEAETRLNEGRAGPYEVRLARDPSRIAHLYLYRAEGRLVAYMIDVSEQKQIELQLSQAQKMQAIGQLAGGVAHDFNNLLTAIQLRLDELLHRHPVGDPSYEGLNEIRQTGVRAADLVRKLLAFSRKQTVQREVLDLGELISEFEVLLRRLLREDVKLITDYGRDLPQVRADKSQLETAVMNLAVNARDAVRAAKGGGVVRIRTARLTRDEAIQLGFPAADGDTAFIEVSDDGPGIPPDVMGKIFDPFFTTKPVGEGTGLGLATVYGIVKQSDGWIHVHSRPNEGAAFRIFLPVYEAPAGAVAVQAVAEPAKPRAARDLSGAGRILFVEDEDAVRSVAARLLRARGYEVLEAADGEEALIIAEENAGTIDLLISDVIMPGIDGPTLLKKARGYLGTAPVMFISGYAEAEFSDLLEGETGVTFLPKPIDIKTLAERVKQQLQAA
Assay: Inhibition of recombinant Caulobacter vibrioides cell cycle histidine kinase CckA deltaTM mutant DHp domain (70 to 691 residues) expressed in Escherichia coli in presence of varying levels of ATP measured every 60 secs for 2 hrs by PK/LDH enzyme coupled assay

| SMILES | IC50 [µM] |
| --- | --- |
| Oc1cc(O)c(-c2n[nH]cc2-c2ccc3c(c2)OCCO3)cc1Cl | 32.3 |
| COc1ccc(-c2c(-c3cc(Cl)c(O)cc3O)n[nH]c2C)cc1 | 12.3 |
| CCNC(=O)c1noc(-c2cc(C(C)C)c(O)cc2O)c1-c1ccc(CN2CCOCC2)cc1 [5-[2,4-dihydroxy-5-(propan-2-yl)phenyl]-N-ethyl-4-[4-(morpholin-4-ylmethyl)phenyl]-1,2-oxazole-3-carboxamide] | 7.3 |
| Cc1[nH]nc(-c2cc(Cl)c(O)cc2O)c1-c1ccc2c(c1)OCCO2 [4-chloro-6-[4-(2,3-dihydro-1,4-benzodioxin-6-yl)-5-methyl-1H-pyrazol-3-yl]benzene-1,3-diol] | 11.2 |
| CCc1cc(-c2n[nH]c(C)c2-c2ccc3c(c2)OCCO3)c(O)cc1O | 28 |

From BindingDB's records for doi:10.1016/j.bmcl.2017.10.036 (Williams College, 2017)
